Reference: BigSolDB 2.1

NC(N)=C([N+](=O)[O-])[N+](=O)[O-]
solubility (mole fraction)
Settings | 293.15 K | 303.15 K | 313.15 K | 323.15 K | 333.15 K | 343.15 K | 353.15 K | 363.15 K
in DMF | 0.0918 | 0.102 | 0.11 | 0.119 | 0.129 | 0.137 | 0.148 | 0.162
in DMSO | 0.183 | 0.191 | 0.199 | 0.207 | 0.217 | 0.229 | 0.242 | 0.254
in NMP | 0.168 | 0.178 | 0.184 | 0.194 | 0.203 | 0.214 | 0.227 | 0.24
